# Test results: patent US20260076986A1 (priority 2022, published 2026)
# Assays:
# transgenic AD mice = conditions: cited from earlier work
# animals = conditions: 20-40 mg/kg/day over 3 to 4 months; cited from earlier work
# [1] = capsules or different food sources; cited from earlier work
# [2] = cited from earlier work
# [3] = tested on: glutathione reductase and superoxide desmutases; conditions: periods of days to weeks; cited from earlier work
# amyloid beta = target: T1, amyloid beta (Homo sapiens, UniProt P05067); assay: in vitro formation and breakdown of amyloid beta oligomers, aggregates and fibrils; format: biochemical; conditions: approximately
# T1 construct: cleaved by alpha and beta secretases, producing free amyloid beta peptide
# T1 sequence (P05067 672-713 limits assumed): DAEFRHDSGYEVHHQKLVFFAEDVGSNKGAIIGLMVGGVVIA
# Excerpt: Scyllo-inositol is a natural sugar found in many nutrients, including coconut, carrots, grapes and citrus fruits.
# Thus, our target concentration in the CSF (which we assume to be similar to the interstitial fluid in the brain) is approximately 2-5 ugm/ml.
# [4] = tested on: mild and moderate AD patients; assay: phase 2 study of scyllo-inositol 250 mg BID in mild and moderate AD patients over 78 weeks; format: in vivo, human
# Excerpt: The inclusion of mild AD patients with an MMSE score of 20 and 21 was sufficient to mask the efficacy observed in mild AD patients with an MMSE from 22-26.
# Scyllo-inositol is a drug that, in oral form, crosses the blood-brain barrier to achieve low mM levels in the blood. […] See McLaurin, J. et. al., J Mol. Biol. (1998): 183-194. […] The population of AD patients in the study was mild to moderate Alzheimer's disease having MMSE of 16-26. […] See Salloway, et al. Neurology 2011; 77:1253-1262.
# A randomized, double blind placebo-controlled study phase 2 study explored the safety and efficacy of 250 mg BID administered to mild and moderate AD patients over 78 weeks. One of the primary endpoints used to measure changes in cognition was the Neuropsychological Test Battery (NTB) as well as measuring the levels of biomarkers in the CSF such as Amyloid beta 42 and phosphorylated Tau. The primary analysis compared 250 mg BID […] and placebo (n=82) in mild to moderate patients, and an additional pre-specified analysis was performed in the placebo and treated mild AD patients. […] Similar trends were also observed in other cognition and function tests such CSR-SoB and ADCS-ADL.
# [5] = scyllo-inositol levels in CSF of AD patients; format: in vivo, human; conditions: 250 mg BID
# [6] = clinical safety review of scyllo-inositol (ELND005) studies; format: in vivo, human; conditions: clinical studies of up to 2.5 years
# Protocol: In the completed studies, […] have been exposed to at least a single dose of ELND005 (161 unique healthy subjects in Phase 1 studies, 306 unique patients in Phase 2 studies). The 306 Mild and Moderate AD patients were treated with ELND005 doses of up to 2000 mg BID. In the completed Phase 2 studies, the duration of treatment was up to 2.5 years with the 250-mg BID dose. The Phase 2 AD studies provided a total of 370.2 patient-years of exposure at any dose. At the dose of 250 mg BID, there have been a total of 154.8 patient-years of exposure in AD patients.
# Of the 161 healthy subjects who received ELND005 in Phase 1 studies, 87 were between the ages of 18 and 54 years (inclusive) and 74 were between ages of 55 and 81 years (inclusive). The dose range was 70 to 7000 mg in single-dose studies and 200 to 3000 mg BID in multiple-dose studies for up to 10 days. Patients with AD were treated with 250 mg BID to 2000 mg BID.
# rats = conditions: rat, in vivo, 6 months
# [7] = tested on: Alzheimer transgenic mouse model; conditions: cited from earlier work
# [8] = tested on: mild and moderate AD patients; conditions: cited from earlier work
# neurons = conditions: cited from earlier work
# hippocampal slices = conditions: infusion in rat brain, toxic amyloid beta oligomers; cited from earlier work
# [9] = nine phase 1 studies; cited from earlier work
smiles,measurement,setting,value
"O=c1cc(-c2ccc(O)cc2)oc2cc(O)cc(O)c12 [apigenin, 4′,5,7-trihydroxyflavone]",amyloid beta half life,"transgenic AD mice; Transgenic AD mice, not observed with deleted Aquaporin 4 gene",significantly reduced
same,efficacy dose observed in animal models,transgenic AD mice; approximately,20 to 40 mg/kg/day
same,increase of clearance of amyloid beta in the brain,"transgenic AD mice; mouse, in vivo",30-40%
same,aquaporin channels on perivascular astrocytes,transgenic AD mice; transgenic AD mice,increased the expression and localization
same,cognition,transgenic AD mice; transgenic AD mice,reversed the loss in cognition to normal levels
same,reduction of amyloid beta 42 burden,transgenic AD mice; transgenic mouse model,20-30%
same,adverse events,animals,No adverse events
same,adverse events,[1],No signs of adverse events
same,water solubility,[2],reduced water solubility
same,level of apigenin resulting in elevated glutathione reductase and superoxide desmutases,[3],3.5-4.5 mgs per day
O[C@H]1[C@H](O)[C@@H](O)[C@H](O)[C@@H](O)[C@@H]1O [scyllo-inositol],concentration sufficient to prevent formation of oligomers and break down amyloid beta aggregates and fibrils,amyloid beta,2-5 ugms/ml
same,efficacy on cognition and function by MMSE subgroup,[4]; mild AD patients with MMSE score of 22-26,more pronounced
same,NTB score,"[4]; mild AD patients, 250 mg BID",very strong signal in improvement
same,parameters measured in the NTB that showed improvement,"[4]; mild AD patients, 250 mg BID",7 of the 9
same,changes in cognition,"[4]; mild to moderate patient population, 250 mg BID",not statistically significant
same,average scyllo-inositol levels in CSF,[5],15 µg/mL
same,dose considered safe for long-term use,[6],250 mg BID
same,dose safe with no observed pathologies,rats,up to 2500 mg/kg/day
same,dose safe and no pathologies,"dogs; dog, in vivo, 12 months",300 mg/kg/day
same,adverse events,"dogs; dogs, 2000 mg/kg/day for 12 months, skin inflammation, gingivitis and pneumonia",some mild adverse events
same,reduction of amyloid beta 42 in the brain,[7]; 10 mg/kg and 30 mg/kg,20-30%
same,reduction of number of plaques,[7]; 10 mg/kg and 30 mg/kg,25-50%
same,cognition in Morris Water maze test,[7]; oral treatment,comparable to normal animals
same,subgroup analysis versus placebo,"[8]; MMSE 23-26, 250 mg BID",did not achieve statistical significance
same,primary endpoints NTB and/or ADCS-ADL versus placebo,"[8]; full analysis set, 250 mg BID, 78 weeks, MMSE 16-26",no statistical significance
same,"efficacy on NTB, CDR-SoB, ADCS-ADL and ADAS-Cog","[8]; mild and moderate AD patients, overall population",failed to show efficacy
same,"primary endpoints NTB and ADCS-ADL, preventing decline versus placebo","[8]; per-protocol sets, 250 mg BID, 78 weeks",no statistically significant different
same,amyloid beta binding to neurons and neurotoxicity,neurons,prevent amyloid beta binding to neurons and reduced neurotoxicity
same,long term potentiation,hippocampal slices,restores long term potentiation
same,blood brain barrier passage,[9],crosses the blood brain barrier
same,plasma levels versus dose,[9],dose proportional increase
